Data published in PMC8826726, “Selective Toxicity of Secondary Metabolites from the Entomopathogenic Bacterium Photorhabdus luminescens sonorensis against Selected Plant Parasitic Nematodes of the Tylenchina Suborder” (Microbiology Spectrum, 2022).
In brackets after ≈: the same amount, converted by molar mass. Like-named read-outs stand apart in the source and are kept apart here.

Legend:
[1] = system: HFF cells (human foreskin cells); test: MTT cytotoxicity assay; type: cell-based; conditions: tested at 50, 100, 200 μM, data not shown
Description: (§1) The non-cancerous HFF cells (human foreskin cells) and three human cancer cell lines, NCI-H460 (non-small cell lung cancer), SF-268 (central nervous system glioma), and MCF-7 (breast cancer) were used to evaluate the in vitro cytotoxicity of the isolated Photorhabdus SMs. The MTT (3-(4,5-dimethylthiazol-2-yl)-2,5-diphenyltetrazolium bromide) colorimetric method ([54]) was used with doxorubicin as the positive control, and DMSO as the negative control. Photorhabdus SMs were tested at 50, 100, and 200 μM concentrations, and the assays were repeated three times.

R. blumi [2] = test: in vitro; conditions: data not shown
Description: (§2) The non-target species, C. elegans wild-type strain N2 Bristol (courtesy of Dr. G.L. Sutphin, University of Arizona) and Rhabditis blumi DF5010 (Caenorhabditis Genetics Center, University of MN, USA) were maintained in vitro in nematode growth medium (NGM) agar plates seeded with Escherichia coli (Migula) Castellani and Chalmers, strain OP-50, as described previously ([52]). Mixed juveniles and hermaphrodites (5 to 6 days old) were collected from the culture plates prior to the bioassays. Infective third-stage juveniles (IJs) of three non-target entomopathogenic nematode species (H. sonorensis Caborca strain, H. bacteriophora TT01 strain, and Steinernema carpocapsae All strain) were also maintained by rearing them in vivo using wax moth larvae (Galleria mellonella) as the host, according to procedures described previously ([53]), and collected for bioassays within 2 to 4 days of their emergence from nematode-infected cadavers. Nematode population density (number of nematodes per ml) was standardized prior to setting up well-plate bioassays, by adjusting each nematode suspension to a concentration of 100 nematodes in 20 μL of distilled water.
(§3) Twelve-well tissue culture plates were used as the experimental arena. For each of the tested nematode species, an inoculum of 100 nematodes, suspended in 20 μL distilled water, was added to each well. […] For PPA (Enamine) and indole (Alfa Aesar), 13 incremental concentrations were tested ranging from 10 to 400 μg/mL in 1 mL of distilled water (DMSO ≤ 1%; vol/vol). […] Distilled water with 1% DMSO was used as the negative control. To measure the combined nematicidal effects of the three SMs, equal concentrations of two or three SMs were mixed in 1:1 or 1:1:1 mixture. For example, a 20 μg/mL solution of a two-SM mixture contained 20 μg from metabolite A and 20 μg metabolite B, dissolved in 1 mL distilled water. Individual or combined SMs from 10 μg/mL to 200 μg/mL (in 20 μg/ml increments) were prepared in distilled water (DMSO ≤ 1%; vol/vol) and used for the bioassays.
(§4) The well plates were covered with their lids and incubated at 25°C in the dark. For the targeted nematode species, nematicidal activity was recorded at 24 h, 48 h, and 72 h after initial exposure to the individual SMs. For the non-target species, data were only recorded at 24 h after initial exposure to the individual SMs. For SM mixtures, mortality was recorded 24 h after initial exposure of the targeted nematode species. Nematodes were probed with a needle to assess if they were alive, dead, or paralyzed. […] Those nematodes that resumed activity upon probing were considered to suffer from temporary paralysis (impaired motility). Paralyzed nematodes were rinsed at least three times in distilled water and held for an additional 24 h to check for their recovery from temporarily paralysis. […] Experiments were repeated at least three times per treatment for each concentration tested.
(§5) For the toxicity data visualization, the relationship between percent mortality or temporary paralysis and metabolite concentration were described by a sigmoidal curve, which was fitted by the logistical function using the statistical software package SigmaPlot for Windows, version 14.0 (Systat Software Inc.). […] Concentration-response data of single metabolites or SM mixtures were pooled for each concentration and subjected to probit regression analysis using the Polo Plus program (LeOra Software). The LC or EC values, along with the corresponding 95% confidence intervals, were estimated for each single SM or SM mixture at each exposure time, depending on the experimental setting.

C. elegans = test: in vitro; conditions: data not shown
Description: as §2, §3, §4, §5

S. carpocapsae = test: In vitro nematistatic assay (temporary paralysis), non-target species; type: cell-based; conditions: Steinernema carpocapsae; reversible paralysis, 24 h exposure
[3] = system: non-target nematodes versus targeted PPNs; test: Selectivity index, non-target nematodes over targeted PPNs
Description: The selectivity index of a given SM was calculated by dividing the averages of the LC50 or EC50 values obtained against each of the selected non-target nematodes by the LC50 or the EC50 values observed for each of the targeted PPN tested.

[4] = system: Tylenchulus semipenetrans J2 juveniles; test: In vitro nematistatic assay (temporary paralysis); type: cell-based; conditions: for EC50 / EC90 / EC10 / EC25: temporary paralysis
H. bacteriophora = test: In vitro nematistatic assay (temporary paralysis), non-target species; type: cell-based; conditions: Heterorhabditis bacteriophora; reversible paralysis, 24 h exposure
R. blumi [5] = test: as above; type: cell-based, Rhabditis blumi
[6] = system: Tylenchulus semipenetrans J2 juveniles; test: microbe, parasite or virus in culture; conditions: Tylenchulus semipenetrans, 24 h
Description: (§6) Only soil inhabiting (free-living or infective) stages of target and non-target nematode species were considered in the present study. All nematode cultures (except T. semipenetrans) were maintained in the Stock laboratory (University of Arizona). M. incognita was reared in planta using susceptible tomato plants (cv. Roma VF; seedlings with five or six true leaves; courtesy of Dr. J. Brown, University of Arizona). Eggs of M. incognita were extracted from infected tomato plant roots, and J2 were collected after hatching, following the procedures of Atamian et al. ([50]). T. semipenetrans was isolated from infested lemon orchards at the Yuma Agricultural Center, University of Arizona (Yuma, AZ, USA). Eggs of T. semipenetrans were extracted from infected lemon tree roots using the procedures of El-Borai et al. ([51]), and J2 were collected using the same procedure as that described for M. incognita.
as §3, §4, §5

[7] = system: Meloidogyne incognita J2 juveniles; test: microbe, parasite or virus in culture; conditions: Meloidogyne incognita, 24 h
Description: as §6, §3, §4, §5

MCF-7 (breast cancer) = test: MTT cytotoxicity assay; type: cell-based, human; conditions: tested at 50, 100, 200 μM, data not shown
Description: as §1

[8] = system: NCI-H460 (non-small cell lung cancer); test: MTT cytotoxicity assay; type: cell-based, human; conditions: tested at 50, 100, 200 μM, data not shown
Description: as §1

[9] = system: SF-268 (central nervous system glioma); test: MTT cytotoxicity assay; type: cell-based, human; conditions: tested at 50, 100, 200 μM, data not shown
Description: as §1

For c1ccc2[nH]ccc2c1 [Indole, indole], the “In vitro cytotoxicity: none even at the highest concentration tested” value (shortened to “In vitro cytotoxicity: none even”) [1] was over 200 µM, the “Concentrations showing nematicidal activity” value (R. blumi [2]) was at least 300 µg/mL and the “Concentrations showing nematicidal activity” value (C. elegans) was at least 300 µg/mL. For the same compound, the EC50 (S. carpocapsae) was over 400 µg/mL, the “Selectivity index (EC50), bacteria-feeding nematodes alone” value ([3]; 24 h EC50) was 2–3 and the “Selectivity index (EC50), entomopathogenic nematodes alone” value ([3]; 24 h EC50) was 7-11. The “Selectivity index (EC50), selected non-target nematode species” value ([3]; 24 h EC50, all non-target species) was 5–8, the “Reduction of EC50 for T. semipenetrans versus M. incognita” value ([4]; 24 h of exposure) was 34% and the “Increase of EC50 at 72 h compared with 24 h” value ([4]; T. semipenetrans) was 84%. For the same compound, the “Increase of EC90 at 72 h compared with 24 h” value ([4]; T. semipenetrans) was 79%, the EC50 ([4]; Tylenchulus semipenetrans, 24 h, 24 h exposure, read-out: EC50) was 37 µg/mL (≈ 316 µM) and the EC50 ([4]; Tylenchulus semipenetrans, 48 h, 48 h exposure, read-out: EC50) was 66.2 µg/mL (≈ 565 µM). For the same compound, the EC50 ([4]; Tylenchulus semipenetrans, 72 h, 72 h exposure, read-out: EC50) was 68.3 µg/mL (≈ 583 µM), the EC90 ([4]; Tylenchulus semipenetrans, 24 h exposure) was 64.2 µg/mL (≈ 548 µM) and the EC90 ([4]; Tylenchulus semipenetrans, 48 h exposure) was 108 µg/mL (≈ 922 µM). For the same compound, the EC90 ([4]; Tylenchulus semipenetrans, 72 h exposure) was 115 µg/mL (≈ 982 µM), the EC10 ([4]; 24 h exposure) was 21.4 (12.8, 27.9) μg/mL and the EC25 ([4]; 24 h exposure) was 27.8 (18.9, 34.2) μg/mL. For the same compound, the EC50 ([4]; 24 h exposure) was 37.1 µg/mL (≈ 317 µM), the EC10 ([4]; 48 h exposure) was 40.6 (8.18, 57.5) μg/mL and the EC25 ([4]; 48 h exposure) was 51.2 (16.1, 67.0) μg/mL. For the same compound, the EC10 ([4]; 72 h exposure) was 40.5 (13.1, 55.8) μg/mL, the EC25 ([4]; 72 h exposure) was 51.9 (23.3, 66.0) μg/mL and the EC50 (H. bacteriophora) was over 400 µg/mL. The “Reduction of 24-h EC50 against R. blumi versus C. elegans” value (R. blumi [5]; 24 h) was 77%, the EC50 (R. blumi [5]; Metarhabditis blumi, reversible paralysis, 24 h exposure) was 37 µg/mL (≈ 316 µM) and the LC50 [6] was 388 µg/mL (≈ 3310 µM). The LC50 [7] was 307 µg/mL (≈ 2620 µM), the “In vitro cytotoxicity: none even” value (MCF-7 (breast cancer)) was over 200 µM and the “In vitro cytotoxicity: none even” value [8] was over 200 µM. For the same compound, the “In vitro cytotoxicity: none even” value [9] was over 200 µM.
